Measurements reported in the supplement of paper PMC10307832.

Columns and labels:
Assay in all cases: relative viability (nuclei count vs DMSO), 5 days (fraction); higher = more cells survive
Ruxolitinib + Alpelisib = compound: N#CC[C@H](C1CCCC1)n1cc(-c2ncnc3[nH]ccc23)cn1 [Ruxolitinib] + Cc1nc(NC(=O)N2CCC[C@H]2C(N)=O)sc1-c1ccnc(C(C)(C)C(F)(F)F)c1 [Alpelisib] (partner 2 µM)
How it was run: (§1)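 Relative viability was taken as the ratio of nuclei in treated wells to nuclei in vehicle wells. Lung cancer cell lines in 1536-well plates received compounds by pin tool one day after seeding, either one drug alone or a fixed anchor-drug dose plus five library-drug doses (not always all listed) in √10 steps. Nuclei were counted on 4× images after 5 days of treatment, and values are medians of duplicate plates.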

VE-821 + Pemetrexed = compound: CS(=O)(=O)c1ccc(-c2cnc(N)c(C(=O)Nc3ccccc3)n2)cc1 [VE-821] + Nc1nc2[nH]cc(CCc3ccc(C(=O)N[C@@H](CCC(=O)O)C(=O)O)cc3)c2c(=O)[nH]1 [Pemetrexed] (partner 0.2 µM)
How it was run: as §1

Ruxolitinib + Decitabine = compound: N#CC[C@H](C1CCCC1)n1cc(-c2ncnc3[nH]ccc23)cn1 [Ruxolitinib] + Nc1ncn([C@H]2C[C@H](O)[C@@H](CO)O2)c(=O)n1 [Decitabine] (partner 2 µM)
How it was run: as §1

VE-821 + Trametinib = compound: CS(=O)(=O)c1ccc(-c2cnc(N)c(C(=O)Nc3ccccc3)n2)cc1 [VE-821] + CC(=O)Nc1cccc(-n2c(=O)n(C3CC3)c(=O)c3c(Nc4ccc(I)cc4F)n(C)c(=O)c(C)c32)c1 [Trametinib] (partner 0.02 µM)
How it was run: as §1

NCI-H2085
relative viability (Ruxolitinib + Alpelisib; first compound 0.08 µM): 0.971 | relative viability (Ruxolitinib + Alpelisib; first compound 0.253 µM): 1.02 | relative viability (Ruxolitinib + Alpelisib; first compound 0.8 µM): 1.13 | relative viability (Ruxolitinib + Alpelisib; first compound 2.53 µM): 0.979 | relative viability (Ruxolitinib + Alpelisib; first compound 8 µM): 0.822 | relative viability (VE-821 + Pemetrexed; first compound 0.08 µM): 0.936 | relative viability (VE-821 + Pemetrexed; first compound 0.253 µM): 0.848 | relative viability (VE-821 + Pemetrexed; first compound 0.8 µM): 0.61 | relative viability (VE-821 + Pemetrexed; first compound 8 µM): 0.612 | relative viability (Ruxolitinib + Decitabine; first compound 0.08 µM): 0.598 | relative viability (Ruxolitinib + Decitabine; first compound 0.253 µM): 0.531 | relative viability (Ruxolitinib + Decitabine; first compound 0.8 µM): 0.624 | relative viability (Ruxolitinib + Decitabine; first compound 2.53 µM): 0.515 | relative viability (Ruxolitinib + Decitabine; first compound 8 µM): 0.496 | relative viability (VE-821 + Trametinib; first compound 0.08 µM): 0.507 | relative viability (VE-821 + Trametinib; first compound 0.253 µM): 0.463 | relative viability (VE-821 + Trametinib; first compound 0.8 µM): 0.269 | relative viability (VE-821 + Trametinib; first compound 8 µM): 0.364

BEN
relative viability (Ruxolitinib + Alpelisib; first compound 0.08 µM): 0.944 | relative viability (Ruxolitinib + Alpelisib; first compound 0.253 µM): 0.965 | relative viability (Ruxolitinib + Alpelisib; first compound 0.8 µM): 1.16 | relative viability (Ruxolitinib + Alpelisib; first compound 2.53 µM): 0.956 | relative viability (Ruxolitinib + Alpelisib; first compound 8 µM): 1.08 | relative viability (VE-821 + Pemetrexed; first compound 0.08 µM): 0.839 | relative viability (VE-821 + Pemetrexed; first compound 0.253 µM): 0.678 | relative viability (VE-821 + Pemetrexed; first compound 0.8 µM): 0.719 | relative viability (VE-821 + Pemetrexed; first compound 2.53 µM): 0.799 | relative viability (VE-821 + Pemetrexed; first compound 8 µM): 0.581 | relative viability (Ruxolitinib + Decitabine; first compound 0.08 µM): 0.5 | relative viability (Ruxolitinib + Decitabine; first compound 0.253 µM): 0.699 | relative viability (Ruxolitinib + Decitabine; first compound 0.8 µM): 0.816 | relative viability (Ruxolitinib + Decitabine; first compound 2.53 µM): 0.592 | relative viability (Ruxolitinib + Decitabine; first compound 8 µM): 0.773 | relative viability (VE-821 + Trametinib; first compound 0.08 µM): 1.08 | relative viability (VE-821 + Trametinib; first compound 0.253 µM): 1.02 | relative viability (VE-821 + Trametinib; first compound 0.8 µM): 0.982 | relative viability (VE-821 + Trametinib; first compound 2.53 µM): 1.14 | relative viability (VE-821 + Trametinib; first compound 8 µM): 1.09

HARA
relative viability (Ruxolitinib + Alpelisib; first compound 0.08 µM): 0.862 | relative viability (Ruxolitinib + Alpelisib; first compound 0.253 µM): 0.817 | relative viability (Ruxolitinib + Alpelisib; first compound 0.8 µM): 0.785 | relative viability (Ruxolitinib + Alpelisib; first compound 2.53 µM): 0.697 | relative viability (Ruxolitinib + Alpelisib; first compound 8 µM): 0.857 | relative viability (VE-821 + Pemetrexed; first compound 0.08 µM): 0.253 | relative viability (VE-821 + Pemetrexed; first compound 0.253 µM): 0.232 | relative viability (VE-821 + Pemetrexed; first compound 0.8 µM): 0.201 | relative viability (VE-821 + Pemetrexed; first compound 2.53 µM): 0.169 | relative viability (VE-821 + Pemetrexed; first compound 8 µM): 0.131 | relative viability (Ruxolitinib + Decitabine; first compound 0.08 µM): 0.63 | relative viability (Ruxolitinib + Decitabine; first compound 0.253 µM): 0.472 | relative viability (Ruxolitinib + Decitabine; first compound 0.8 µM): 0.631 | relative viability (Ruxolitinib + Decitabine; first compound 2.53 µM): 0.565 | relative viability (Ruxolitinib + Decitabine; first compound 8 µM): 0.489 | relative viability (VE-821 + Trametinib; first compound 0.08 µM): 0.686 | relative viability (VE-821 + Trametinib; first compound 0.253 µM): 1.08 | relative viability (VE-821 + Trametinib; first compound 0.8 µM): 0.553 | relative viability (VE-821 + Trametinib; first compound 2.53 µM): 0.767 | relative viability (VE-821 + Trametinib; first compound 8 µM): 0.608

PC-14
relative viability (Ruxolitinib + Alpelisib; first compound 0.253 µM): 0.868 | relative viability (Ruxolitinib + Alpelisib; first compound 0.8 µM): 0.902 | relative viability (Ruxolitinib + Alpelisib; first compound 2.53 µM): 0.879 | relative viability (Ruxolitinib + Alpelisib; first compound 8 µM): 0.78 | relative viability (VE-821 + Pemetrexed; first compound 0.08 µM): 0.126 | relative viability (VE-821 + Pemetrexed; first compound 0.253 µM): 0.124 | relative viability (VE-821 + Pemetrexed; first compound 0.8 µM): 0.0908 | relative viability (VE-821 + Pemetrexed; first compound 2.53 µM): 0.0863 | relative viability (VE-821 + Pemetrexed; first compound 8 µM): 0.0432 | relative viability (Ruxolitinib + Decitabine; first compound 0.253 µM): 0.282 | relative viability (Ruxolitinib + Decitabine; first compound 0.8 µM): 0.207 | relative viability (Ruxolitinib + Decitabine; first compound 2.53 µM): 0.153 | relative viability (Ruxolitinib + Decitabine; first compound 8 µM): 0.156 | relative viability (VE-821 + Trametinib; first compound 0.08 µM): 0.966 | relative viability (VE-821 + Trametinib; first compound 0.253 µM): 0.689 | relative viability (VE-821 + Trametinib; first compound 0.8 µM): 0.656 | relative viability (VE-821 + Trametinib; first compound 2.53 µM): 0.63 | relative viability (VE-821 + Trametinib; first compound 8 µM): 0.429

SW 1573
relative viability (Ruxolitinib + Alpelisib; first compound 0.08 µM): 0.926 | relative viability (Ruxolitinib + Alpelisib; first compound 0.253 µM): 0.712 | relative viability (Ruxolitinib + Alpelisib; first compound 0.8 µM): 0.984 | relative viability (Ruxolitinib + Alpelisib; first compound 2.53 µM): 0.558 | relative viability (Ruxolitinib + Alpelisib; first compound 8 µM): 0.687 | relative viability (VE-821 + Pemetrexed; first compound 0.08 µM): 0.774 | relative viability (VE-821 + Pemetrexed; first compound 0.253 µM): 0.816 | relative viability (VE-821 + Pemetrexed; first compound 0.8 µM): 0.748 | relative viability (VE-821 + Pemetrexed; first compound 2.53 µM): 0.784 | relative viability (VE-821 + Pemetrexed; first compound 8 µM): 0.576 | relative viability (Ruxolitinib + Decitabine; first compound 0.08 µM): 0.547 | relative viability (Ruxolitinib + Decitabine; first compound 0.253 µM): 0.512 | relative viability (Ruxolitinib + Decitabine; first compound 0.8 µM): 0.667 | relative viability (Ruxolitinib + Decitabine; first compound 2.53 µM): 0.377 | relative viability (Ruxolitinib + Decitabine; first compound 8 µM): 0.518 | relative viability (VE-821 + Trametinib; first compound 0.08 µM): 0.53 | relative viability (VE-821 + Trametinib; first compound 0.253 µM): 0.627 | relative viability (VE-821 + Trametinib; first compound 0.8 µM): 0.574 | relative viability (VE-821 + Trametinib; first compound 2.53 µM): 0.547 | relative viability (VE-821 + Trametinib; first compound 8 µM): 0.378

NCI-H1355
relative viability (Ruxolitinib + Alpelisib; first compound 0.08 µM): 0.793 | relative viability (Ruxolitinib + Alpelisib; first compound 0.253 µM): 0.83 | relative viability (Ruxolitinib + Alpelisib; first compound 0.8 µM): 0.85 | relative viability (Ruxolitinib + Alpelisib; first compound 2.53 µM): 0.58 | relative viability (Ruxolitinib + Alpelisib; first compound 8 µM): 0.612 | relative viability (VE-821 + Pemetrexed; first compound 0.08 µM): 1.15 | relative viability (VE-821 + Pemetrexed; first compound 0.253 µM): 0.976 | relative viability (VE-821 + Pemetrexed; first compound 0.8 µM): 0.888 | relative viability (VE-821 + Pemetrexed; first compound 2.53 µM): 1.05 | relative viability (VE-821 + Pemetrexed; first compound 8 µM): 0.903 | relative viability (Ruxolitinib + Decitabine; first compound 0.08 µM): 0.353 | relative viability (Ruxolitinib + Decitabine; first compound 0.253 µM): 0.376 | relative viability (Ruxolitinib + Decitabine; first compound 0.8 µM): 0.398 | relative viability (Ruxolitinib + Decitabine; first compound 2.53 µM): 0.326 | relative viability (Ruxolitinib + Decitabine; first compound 8 µM): 0.358 | relative viability (VE-821 + Trametinib; first compound 0.08 µM): 0.53 | relative viability (VE-821 + Trametinib; first compound 0.253 µM): 0.424 | relative viability (VE-821 + Trametinib; first compound 0.8 µM): 0.349 | relative viability (VE-821 + Trametinib; first compound 2.53 µM): 0.429 | relative viability (VE-821 + Trametinib; first compound 8 µM): 0.381

NCI-H460
relative viability (Ruxolitinib + Alpelisib; first compound 0.08 µM): 0.567 | relative viability (Ruxolitinib + Alpelisib; first compound 0.253 µM): 0.389 | relative viability (Ruxolitinib + Alpelisib; first compound 0.8 µM): 0.567 | relative viability (Ruxolitinib + Alpelisib; first compound 2.53 µM): 0.398 | relative viability (Ruxolitinib + Alpelisib; first compound 8 µM): 0.306 | relative viability (VE-821 + Pemetrexed; first compound 0.08 µM): 0.0644 | relative viability (VE-821 + Pemetrexed; first compound 0.253 µM): 0.0622 | relative viability (VE-821 + Pemetrexed; first compound 0.8 µM): 0.0609 | relative viability (VE-821 + Pemetrexed; first compound 2.53 µM): 0.056 | relative viability (VE-821 + Pemetrexed; first compound 8 µM): 0.0393 | relative viability (Ruxolitinib + Decitabine; first compound 0.08 µM): 0.451 | relative viability (Ruxolitinib + Decitabine; first compound 0.253 µM): 0.408 | relative viability (Ruxolitinib + Decitabine; first compound 0.8 µM): 0.576 | relative viability (Ruxolitinib + Decitabine; first compound 2.53 µM): 0.28 | relative viability (Ruxolitinib + Decitabine; first compound 8 µM): 0.388 | relative viability (VE-821 + Trametinib; first compound 0.08 µM): 0.185 | relative viability (VE-821 + Trametinib; first compound 0.253 µM): 0.0922 | relative viability (VE-821 + Trametinib; first compound 0.8 µM): 0.121 | relative viability (VE-821 + Trametinib; first compound 2.53 µM): 0.11 | relative viability (VE-821 + Trametinib; first compound 8 µM): 0.0592

NCI-H2126
relative viability (Ruxolitinib + Alpelisib; first compound 0.08 µM): 0.773 | relative viability (Ruxolitinib + Alpelisib; first compound 0.253 µM): 0.767 | relative viability (Ruxolitinib + Alpelisib; first compound 0.8 µM): 0.782 | relative viability (Ruxolitinib + Alpelisib; first compound 2.53 µM): 0.807 | relative viability (Ruxolitinib + Alpelisib; first compound 8 µM): 0.789 | relative viability (VE-821 + Pemetrexed; first compound 0.08 µM): 0.687 | relative viability (VE-821 + Pemetrexed; first compound 0.253 µM): 0.585 | relative viability (VE-821 + Pemetrexed; first compound 0.8 µM): 0.693 | relative viability (VE-821 + Pemetrexed; first compound 2.53 µM): 0.475 | relative viability (VE-821 + Pemetrexed; first compound 8 µM): 0.31 | relative viability (Ruxolitinib + Decitabine; first compound 0.08 µM): 0.559 | relative viability (Ruxolitinib + Decitabine; first compound 0.253 µM): 0.594 | relative viability (Ruxolitinib + Decitabine; first compound 0.8 µM): 0.584 | relative viability (Ruxolitinib + Decitabine; first compound 2.53 µM): 0.631 | relative viability (Ruxolitinib + Decitabine; first compound 8 µM): 0.635 | relative viability (VE-821 + Trametinib; first compound 0.08 µM): 0.54 | relative viability (VE-821 + Trametinib; first compound 0.253 µM): 0.54 | relative viability (VE-821 + Trametinib; first compound 0.8 µM): 0.549 | relative viability (VE-821 + Trametinib; first compound 2.53 µM): 0.495 | relative viability (VE-821 + Trametinib; first compound 8 µM): 0.533
